Values after ≈ are worked out from the molar mass of the structure shown. Where two headings read alike, the source gives them in different places.
Tests used:
Actinomyces viscosus = assay: MIC of antibacterial agents alone and in combination with CK-4; format: cell-based; conditions: A. viscosus
Text: (§1) The checkerboard method is the most frequently used method to access the antimicrobial combinations in vitro. The term “checkerboard” refers to the pattern (of tubes or microtiter plate wells) formed by multiple dilutions of two drugs being tested (Eliopoulos G M, Moellering R C. Antimicrobial Combinations, in: Antibiotics in Laboratory Medicine: USA: Williams & Wilkins). In the present study the checkerboard consisted of columns in which each tube (or well) contains the same amount of the standard drug (antibacterial/antifungal/anti-TB/antiviral) being diluted along the x-axis and rows in which each tube (or well) contains the same amount of the potentiator being diluted on the y-axis. As a result each square in the checkerboard (which represents one tube/well or plate) contained a unique combination of the standard drug and potentiator. The concentration range of standard drug in the present study was 64 μg/ml to 0.03 μg/ml, whereas the potentiator was tested in the range of 500 μg/ml to 0.2 μg/ml. This checkerboard technique can be performed with liquid or semisolid (agar) media.
(§2) In the agar method the agar (Mueller Hinton agar, Middlebrook 7H10 agar) was autoclaved and allowed to cool to 55° C. to 50° C. The combination of the standard drug and the potentiator was added to the agar. Serial two fold dilutions of each of standard drug and the potentiator were prepared in appropriate solvents. In order to maintain the desired concentrations of both agar and drugs, and to rule out the effect of solvent, the volume of solvent (containing standard drug or potentiator) added to agar was kept small (i.e. ≦5% of the total volume). After the agar plates have been poured and allowed to dry, the bacteria to be tested were applied to the surface of agar with a replicating device designed to deliver a standard inoculum (approx 10^4 cfu/spot). The plates were incubated at 37° C. for 24 hrs (3 weeks in case of Mycobacterium tuberculosis).
(§3) The above-mentioned checkerboard was also performed with liquid media in a microtiter plate format. This method was used to study the combination of antibacterial/antifungal/antiviral drugs with potentiator.
(§4) Minimum Inhibitory Concentration (MIC) of triclosan alone and in combination with the above mentioned chalcone compound was performed against Streptococcus mutans, Actinomyces viscosus and Fusobacterium nucleatum, using method described in the study design.
(§5) Minimum Inhibitory Concentration (MIC) of magnolol alone and in combination with the above mentioned chalcone compound was performed against Streptococcus mutans, Actinomyces viscosus and Fusobacterium nucleatum, using method described in the study design.
(§6) Minimum Inhibitory Concentration (MIC) of honokiol alone and in combination with the above mentioned chalcone compound was performed against Streptococcus mutans, Actinomyces viscosus and Fusobacterium nucleatum, using method described in the study design.

Fusobacterium nucleatum = assay: as above; format: cell-based; conditions: F. nucleatum
Text: as §1, §2, §3, §4, §5, §6

Streptococcus mutans = assay: as above; format: cell-based; conditions: S. mutans
Text: as §1, §2, §3, §4, §5, §6

A. Viscosus biofilm = assay: Inhibition of single species biofilm formation (BEC50, crystal violet); format: cell-based, Actinomyces viscosus; design: unit not given here; conditions: 24 hours; for BEC50 alone: agent alone
Protocol: (§7) Actinomyces viscosus (ATCC#43146) was grown in trypticase soy broth supplemented with 0.6% yeast extract (TSB-YE) at 37° C., static culture. For mixed species assays, the source of bacteria was a continuous culture chemostat inoculated with A. viscosus, Lactobacillus casei (ATCC #334), Streptococcus oxalis (ATCC #35037), Fusobacterium nucleatum (ATCC #10953), and Veilonella parvula (ATCC #17745). This mixed culture was maintained in a specialized complex medium in a continuous culture chemostat at 37° C.
To assess the bioenhancing ability of CK-4, inhibition of single species biofilm formation tests were conducted. Actives of interest were plated in the first column of a sterile 384-well culture plate and serial twofold dilutions were performed across the plate in 0.5× TSB. First generation cultures of A. Viscosus bacteria were grown overnight in TSB-YE. Cultures were diluted to an OD610˜0.2 in 0.5×TSB and plated in the wells containing serial dilutions of actives. Plates were incubated for 24 hours at 37° C. to allow growth and biofilm formation to occur.
Following incubation, supernatants were removed from the plate and remaining biofilms were stained with 0.03% Grain's crystal violet. Stained plates were read on a Perkin Elmer EnVision microplate reader for absorbance at 590 nm.

[1] = tested on: Streptococcus mutans, Actinomyces viscosus and Fusobacterium nucleatum; assay: Fold reduction in MIC over the three oral bacteria; format: cell-based; conditions: in combination with CK-4; over S. mutans, A. viscosus and F. nucleatum
Text: as §1, §2, §3, §4
Minimum Inhibitory Concentration (MIC) of magnolol alone and in combination with the above mentioned chalcone compound was performed against Streptococcus mutans, Actinomyces viscosus and Fusobacterium nucleatum, using method described in the study design. […]

A. viscosus = assay: MIC assay using A. viscosus as reference organism (96-well, OD610); format: cell-based; conditions: Actinomyces viscosus, compound alone, 0.5x TSB, overnight 37° C.
Protocol: as §7

[2] = tested on: Staphylococcus aureus 1199B (NorA overexpressing); assay: Checkerboard MIC of ciprofloxacin alone and in combination with chalcone; format: cell-based; conditions: for MIC: Staphylococcus aureus
[3] = tested on: Staphylococcus aureus ATCC 29213; assay: Systemic infection model of mice, ED50 of ciprofloxacin; format: in vivo, Swiss albino mice; conditions: ATCC29213, iv, after seven days of observation
Protocol: Efficacy testing will be done using standard procedures. Primary efficacy evaluation may be done using the murine septicemia model (Yun et al. Journal of Antimicrob. Chemother., 2002, 46: 3071-3074). In this model a supra-lethal dose of bacteria is used to challenge the rodents. Treatment is initiated, varying either or both time(s) of treatment and dose of antibiotic. In these experiments both the antibiotic and the efflux pump inhibitor doses are varied.
The study was conducted to see the in vivo response of ciprofloxacin in combination with the above-mentioned efflux pump inhibitor. The Swiss albino mice were infected intravenously with Staphylococcus aureus ATCC 29213 (10^7 CFU/mouse). The infected mice were divided in groups and each group consisted of 6 mice. The treatment consisted of one dose immediately after the infection followed by the next dose after a gap of 6 hrs. The result was recorded as number of survivals each day.

[4] = tested on: Staphylococcus aureus SA-K2191 (MsrA overexpressing); assay: Checkerboard MIC of erythromycin alone and in combination with chalcone; format: cell-based; conditions: for MIC: Staphylococcus aureus
[5] = tested on: Staphylococcus aureus SA-K2192 (TetK overexpressing); assay: Checkerboard MIC of tetracycline alone and in combination with chalcone; format: cell-based
[6] = Actinomyces viscosus, agent alone, read-out: MIC
[7] = Fusobacterium nucleatum, agent alone, read-out: MIC
[8] = Streptococcus mutans, agent alone, read-out: MIC
[9] = in combination with CK-4 at 50 μg/ml
[10] = in combination with CK-14 at 50 μg/ml

| Compound | MIC (Actinomyces viscosus; with CK-4 6.25 μg/ml) [µg/mL] | MIC (Actinomyces viscosus; with CK-4 12.5 μg/ml) [µg/mL] | MIC (Actinomyces viscosus; with CK-4 25 μg/ml) [µg/mL] | MIC (Actinomyces viscosus; [6]) [µg/mL] | MIC (Fusobacterium nucleatum; with CK-4 6.25 μg/ml) [µg/mL] | MIC (Fusobacterium nucleatum; with CK-4 12.5 μg/ml) [µg/mL] | MIC (Fusobacterium nucleatum; with CK-4 25 μg/ml) [µg/mL] | MIC (Fusobacterium nucleatum; [7]) [µg/mL] | MIC (Streptococcus mutans; with CK-4 6.25 μg/ml) [µg/mL] | MIC (Streptococcus mutans; with CK-4 12.5 μg/ml) [µg/mL] | MIC (Streptococcus mutans; with CK-4 25 μg/ml) [µg/mL] | MIC (Streptococcus mutans; [8]) [µg/mL] | BEC50 alone (A. Viscosus biofilm) | BEC50 with CK-4 (A. Viscosus biofilm) | reduction in MIC in combination with chalcone compound [1] | other results |
| --- | --- | --- | --- | --- | --- | --- | --- | --- | --- | --- | --- | --- | --- | --- | --- | --- |
| CCCCc1ccc(O)c(-c2cc(CCCC)ccc2O)c1 [Butyl magnolol, 5,5′-dibutylbiphenyl-2,2′-diol] | 4.0 | 2.0 | 1.0 | 4 | 2.0 | 2.0 | 1.0 | 2 | 4.0 | 2.0 | 1.0 | 4 | 0.65 | 0.24 | Two to four-fold |  |
| COc1cc(/C=C/C(=O)c2ccccc2)ccc1O [CK-4, 3-(4′-Hydroxy-3′-methoxy-phenyl)-1-phenyl-prop-2-ene-1-one] |  |  |  |  |  |  |  |  |  |  |  |  |  |  |  | MIC (A. viscosus): > 100 µg/mL |
| C=CCc1ccc(O)c(-c2ccc(O)c(CC=C)c2)c1 [Honokiol, honokiol] | 2.0 | 1.0 | 0.5 | 4 | 1.0 | 1.0 | 0.5 | 2 | 2.0 | 1.0 | 0.5 | 4 | 5.21 | 2.60 | Four to eight-fold |  |
| C=CCc1ccc(O)c(-c2cc(CC=C)ccc2O)c1 [Magnolol, magnolol] | 1.0 | 0.5 | 0.25 | 4 | 1.0 | 1.0 | 0.5 | 2 | 2.0 | 1.0 | 0.5 | 4 | 3.91 | 1.95 | Up to sixteen-fold |  |
| CCCc1ccc(O)c(-c2ccc(O)c(CCC)c2)c1 [Propyl Honokiol, propyl honokiol] |  |  |  |  |  |  |  |  |  |  |  |  | 0.49 | 0.65 |  |  |
| Oc1cc(Cl)ccc1Oc1ccc(Cl)cc1Cl [Triclosan, triclosan] | 2.0 | 1.0 | 0.5 | 4 | 1.0 | 1.0 | 0.5 | 2 | 2.0 | 1.0 | 0.5 | 4 | 1.95 | 0.98 | Four to eight-fold | MIC (A. viscosus): 3.5 µg/mL (≈ 12.1 µM) |
| O=C([O-])CC(O)(CC(=O)[O-])C(=O)[O-].O=C([O-])CC(O)(CC(=O)[O-])C(=O)[O-].[Zn+2].[Zn+2].[Zn+2] [Zinc Citrate] |  |  |  |  |  |  |  |  |  |  |  |  | 41.67 | 20.83 |  |  |
| O=C(O)c1cn(C2CC2)c2cc(N3CCNCC3)c(F)cc2c1=O [ciprofloxacin] |  |  |  |  |  |  |  |  |  |  |  |  |  |  |  | MIC ([2]; read-out: MIC (μg/ml) of ciprofloxacin for Staphylococcus aureus 1199B, ciprofloxacin alone): 8 µg/mL; MIC ([2]; read-out: MIC (μg/ml) of ciprofloxacin for Staphylococcus aureus 1199B, in combination with CK-4 6.25 μg/ml): 4 µg/mL; MIC ([2]; read-out: MIC (μg/ml) of ciprofloxacin for Staphylococcus aureus 1199B, in combination with CK-4 12.5 μg/ml): 2 µg/mL; MIC ([2]; read-out: MIC (μg/ml) of ciprofloxacin for Staphylococcus aureus 1199B, in combination with CK-4 25.0 μg/ml): 1 µg/mL; MIC ([2]; read-out: MIC (μg/ml) of ciprofloxacin for Staphylococcus aureus 1199B, in combination with CK-4 50.0 μg/ml): 0.5 µg/mL; reduction in MIC of ciprofloxacin [2, 9]: Up to sixteen-fold; reduction in MIC of ciprofloxacin [2, 10]: Up to eight-fold; ED50 ([3]; ciprofloxacin alone, mice infected i.v. with S. aureus ATCC 29213, two doses 6 hrs apart): 9.2 mg/kg; ED50 ([3]; in combination with the CK-4, mice infected i.v. with S. aureus ATCC 29213, two doses 6 hrs apart): 5.86 mg/kg |
| CC[C@H]1OC(=O)[C@H](C)[C@@H](O[C@H]2C[C@@](C)(OC)[C@@H](O)[C@H](C)O2)[C@H](C)[C@@H](O[C@@H]2O[C@H](C)C[C@H](N(C)C)[C@H]2O)[C@](C)(O)C[C@@H](C)C(=O)[C@H](C)[C@@H](O)[C@]1(C)O [erythromycin] |  |  |  |  |  |  |  |  |  |  |  |  |  |  |  | MIC ([4]; read-out: MIC (μg/ml) of erythromycin for Staphylococcus aureus SA-K2191, erythromycin alone): 64 µg/mL; MIC ([4]; read-out: MIC (μg/ml) of erythromycin for Staphylococcus aureus SA-K2191, in combination with CK-4 6.25 μg/ml): 64 µg/mL; MIC ([4]; read-out: MIC (μg/ml) of erythromycin for Staphylococcus aureus SA-K2191, in combination with CK-4 12.5 μg/ml): 32 µg/mL; MIC ([4]; read-out: MIC (μg/ml) of erythromycin for Staphylococcus aureus SA-K2191, in combination with CK-4 25.0 μg/ml): 16 µg/mL; MIC ([4]; read-out: MIC (μg/ml) of erythromycin for Staphylococcus aureus SA-K2191, in combination with CK-4 50.0 μg/ml): 8 µg/mL; reduction in MIC of erythromycin [4, 9]: Up to eight-fold; reduction in MIC of erythromycin [4, 10]: Up to four-fold |
| CN(C)[C@@H]1C(O)=C(C(N)=O)C(=O)[C@@]2(O)C(O)=C3C(=O)c4c(O)cccc4[C@@](C)(O)[C@H]3C[C@@H]12 [tetracycline] |  |  |  |  |  |  |  |  |  |  |  |  |  |  |  | MIC ([5]; read-out: MIC (μg/ml) of tetracycline for Staphylococcus aureus SA-K2192, in combination with CK-4 6.25 μg/ml): 32 µg/mL; MIC ([5]; read-out: MIC (μg/ml) of tetracycline for Staphylococcus aureus SA-K2192, in combination with CK-4 12.5 μg/ml): 16 µg/mL; MIC ([5]; read-out: MIC (μg/ml) of tetracycline for Staphylococcus aureus SA-K2192, in combination with CK-4 25.0 μg/ml): 8 µg/mL; MIC ([5]; read-out: MIC (μg/ml) of tetracycline for Staphylococcus aureus SA-K2192, in combination with CK-4 50.0 μg/ml): 4 µg/mL; MIC ([5]; read-out: MIC (μg/ml) of tetracycline for Staphylococcus aureus SA-K2192, tetracycline alone): 32 µg/mL |
| Catechin |  |  |  |  |  |  |  |  |  |  |  |  | 26.04 | 26.04 |  |  |

Reference: US9192589B2, “Chalcones as enhancer of antimicrobial agents” (priority 2009, dated 2015)
